This experiment deals with recombinant HLA-DR*0401. It is filed as binding, human.

With IKNKIDGETTDYAAPV, the “affinity for HLA-DR*0401” value was “high affinity”.

For the origin of these results see paper PMC5808925 (Nature, 2017).
